Values of other authors, collected in patent publication US20110200560A1, “NON-IONIC SELF-ASSEMBLING PEPTIDES AND USES THEREOF” (MASSACHUSETTS INSTITUTE OF TECHNOLOGY, priority 2009, published 2011).
Like-named read-outs stand apart in the source and are kept apart here.

Legend:
[1] = system: cell adhesion
[2] = system: human umbilical vein endothelial cell (HUVEC); conditions: from RADA 16-I scaffold, without additional soluble growth factors
[3] = system: human umbilical vein endothelial cells (HIVEC)
[4] = system: HUVEC
[5] = system: neuronal cell
[6] = system: PC12 cells

For PDSGR (Mammalian), which cell adhesion [1] is on record?
The cell adhesion was “promoted cell adhesion”.

Which “HUVEC unidirectional migration in response to functional peptide scaffolds” value [2] does the source give for “RAD/KLT: RADA16 peptide scaffold containing motif from vascular endothelial growth factor (KLTWQELYQLKYKGI) (SEQ ID NO: 78) (Mammalian)” here?
The value was “directionally migrated”.

What about the “HUVEC unidirectional migration in response to functional peptide scaffolds” value ([2]; listed as KLT) of the same substance?
Its value is “induced cell migration”.

Which “degradation of Matrigel matrix by human umbilical vein endothelial cells” value [3] does the source give for “CSRARKQAASIKVAVSADR (Mammalian) [Laminin-1 peptide]” here?
Its value is “induced degradation of Matrigel matrix”.

Which “HUVEC unidirectional migration in response to functional peptide scaffolds” value [2] does the source give for “RAD/PRG: RADA16 peptide scaffold containing active motif with 2 units RGD motif (PRGDSGYRGDS) (SEQ ID NO: 77) (Mammalian)” here?
The value was “directionally migrated”.

And the “HUVEC unidirectional migration in response to functional peptide scaffolds” value ([2]; listed as PRG)?
Its value is “induced cell migration”.

What does the source list for KAFDITYVRLKF (Mammalian)?
HUVEC adhesion [4]: promoted; HUVEC tube formation [4]: promoted; neurite outgrowth [5]: promoted; neuronal cell adhesion [5]: promoted

With RYVVLPR (Mammalian) as the substance, how does the cell adhesion [1] read?
The cell adhesion was “promoted cell adhesion”.

With AASIKVAVSADR (Mammalian) as the substance, how does the “activity of neurite extension by PC12 cells” value [6] read?
The value was “promoted activity of neurite extension”.

With YIGSR (Mammalian) as the substance, how does the cell adhesion [1] read?
Its cell adhesion is “promoted cell adhesion”.
